Laboratory results reported in US5407918A, “16-membered macrolide derivatives and process for producing the same” (Meiji Seika Kaisha, Ltd., priority 1992, dated 1995).
In brackets after ≈: the same amount, converted by molar mass. Entries after “also recorded” stand apart in the source; their conditions may differ.

Legend:
Mycoplasma = experiment: anti-Mycoplasma activity (summary in words); format: cell-based
Description: Antimicrobial activities of the compounds of the present invention were determined by measuring minimum inhibitory concentration (MIC). Minimum inhibitory concentration was determined by the agar plate dilution method in the following manner.
Test strains were subjected to seed culture using Sensitivity test broth (STB, Nissui Pharmaceutical) except that the strains belonging to the genus Streptococcus, Branhamella and Haemophilus were cultured on blood agar plate. A 5 μl portion of cell suspension of the test strains having about 10^6 CFU/ml was inoculated into Sensitivity disk agar (SDA, Nissui Pharmaceutical) supplemented with 5% horse blood and incubated at 37° C. for 20 hours. Then, MIC was measured. For comparison, MDM and leucomycin A7 (LM-A7) was also tested.

[1] = system: Gram-positive bacteria and Mycoplasma; experiment: antimicrobial activity in vitro (summary in words); format: cell-based; settings: from Table 1
Procedure, shortened: (§1)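 MIC is the value read after 20 hours at 37° C on compound-containing Sensitivity disk agar supplemented with 5% horse blood. Each plate receives a 5 μl spot of cell suspension near 10^6 CFU/ml, prepared from broth seed cultures or, for Branhamella, blood agar cultures.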

metabolism in plasma = format: in vitro ADME, rat; settings: no free hydroxyl group in the neutral sugar moiety formed
Description: Each test compound and 50 μl of a methanol solution (10,000 γ) were added to 950 μl of thawed rat plasma and the resulting mixture was incubated at 37° C. for 24 hours. After completion of the incubation, a 20 μl portion of the mixture was added to 980 μl of 0.05M phosphate buffer (pH 7.6). A 20 μl portion of the sample solution was used to measure antimicrobial activity against M. luteus. Separately, the calibration curve was prepared by using a methanol solution containing each test compound. The starting activity of each compound in the plasma was referred to as 100%.

[2] = concentration in serum after oral administration to mice, bioassay; format: in vivo, mice (Jcl:ICR); settings: for Cmax: mouse, serum, 200 mg/kg, M. luteus bioassay, read-out: maximum concentration in the serum
Procedure, shortened: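 Male 4-week-old Jcl:ICR mice dosed orally with compound suspended in 0.2% CMC (4 mg/ml, 1 ml; another compound at 200 mg/kg). Serum sampled 30-360 min (n=2), diluted 1:1 in CH3CN-phosphate pH 7.0; concentration measured by M. luteus ATCC9341 agar-well bioassay (32 °C, 18 h) against a calibration curve.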

M. luteus ATCC9341 = experiment: MIC, agar plate dilution method; format: cell-based; settings: Micrococcus luteus; M. luteus ATCC9341; 37° C., 20 hours; read-out: Antimicrobial activity (MIC)
Procedure, shortened: as §1

S. Pyogenes Cook = experiment: MIC, agar plate dilution method; format: cell-based; settings: Streptococcus pyogenes, 37° C., 20 hours, read-out: Antimicrobial activity (MIC)
Procedure, shortened: (§2)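 Using blood-supplemented (5% horse) Sensitivity disk agar, we inoculated 5 μl spots of ~10^6 CFU/ml cultures and scored MIC after incubating 20 hours at 37° C. Broth seed cultures served most strains; Branhamella came from blood agar.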

M. pneumoniae FH-P24 = experiment: MIC, agar plate dilution method; format: cell-based; settings: Mycoplasmoides pneumoniae, FHP24, 20 h, read-out: Antimicrobial activity (MIC)
Procedure, shortened: as §2

B. catarrhalis W-0506 = experiment: MIC, agar plate dilution method; format: cell-based; settings: Moraxella catarrhalis, W0506, 37° C., 20 hours, read-out: Antimicrobial activity (MIC)
Procedure, shortened: as §1

E. faecalis W-73 = experiment: MIC, agar plate dilution method; format: cell-based; settings: Enterococcus faecalis, W73; E. faecalis W-73; 37° C., 20 hours; read-out: Antimicrobial activity (MIC)
Procedure, shortened: as §1

M. pneumoniae Numata = experiment: MIC, agar plate dilution method; format: cell-based; settings: Mycoplasmoides pneumoniae, 20 h, read-out: Antimicrobial activity (MIC)
Procedure, shortened: as §1

K. pneumoniae PC1602 = experiment: MIC, agar plate dilution method; format: cell-based; settings: Klebsiella pneumoniae, 37° C., 20 hours, read-out: Antimicrobial activity (MIC)
Procedure, shortened: as §1

S. aureus M133 = experiment: MIC, agar plate dilution method; format: cell-based; settings: Staphylococcus aureus, 37° C., 20 hours, read-out: Antimicrobial activity (MIC)
Procedure, shortened: as §1

S. Pneumoniae Type 1 = experiment: MIC, agar plate dilution method; format: cell-based; settings: Streptococcus pneumoniae; S. Pneumoniae Type 1; 37° C., 20 hours; read-out: Antimicrobial activity (MIC)
Procedure, shortened: as §2

S. aureus MS15009/pMS98 = experiment: MIC, agar plate dilution method; format: cell-based; settings: Staphylococcus aureus, MS15009/PMS98, 20 h, read-out: Antimicrobial activity (MIC)
Procedure, shortened: as §2

S. aureus MS15027 = experiment: MIC, agar plate dilution method; format: cell-based; settings: Staphylococcus aureus, 37° C., 20 hours, read-out: Antimicrobial activity (MIC)
Procedure, shortened: as §1

S. aureus M126 = experiment: MIC, agar plate dilution method; format: cell-based; settings: Staphylococcus aureus; S. aureus M126; 37° C., 20 hours; read-out: Antimicrobial activity (MIC)
Procedure, shortened: as §1

S. aureus 209P JC-1 = experiment: MIC, agar plate dilution method; format: cell-based; settings: Staphylococcus aureus; S. aureus 209P JC-1; 37° C., 20 hours; read-out: Antimicrobial activity (MIC)
Procedure, shortened: as §1

E. coli NIHJ JC-2 = experiment: MIC, agar plate dilution method; format: cell-based; settings: Escherichia coli, NIHJJC2, 20 h, read-out: Antimicrobial activity (MIC)
Procedure, shortened: as §1

S. aureus MS15026 = experiment: MIC, agar plate dilution method; format: cell-based; settings: Staphylococcus aureus, 37° C., 20 hours, read-out: Antimicrobial activity (MIC)
Procedure, shortened: as §1

S. aureus MS15009/pMS99 = experiment: MIC, agar plate dilution method; format: cell-based; settings: Staphylococcus aureus, MS15009/PMS99, 20 h, read-out: Antimicrobial activity (MIC)
Procedure, shortened: as §2

S. pneumoniae IP692 = experiment: MIC, agar plate dilution method; format: cell-based; settings: Streptococcus pneumoniae; S. pneumoniae IP692; 37° C., 20 hours; read-out: Antimicrobial activity (MIC)
Procedure, shortened: as §2

M. pneumoniae FH = experiment: MIC, agar plate dilution method; format: cell-based; settings: Mycoplasmoides pneumoniae, 20 h, read-out: Antimicrobial activity (MIC)
Procedure, shortened: as §1

B. catarrhalis W-0500 = experiment: MIC, agar plate dilution method; format: cell-based; settings: Moraxella catarrhalis, W0500, 37° C., 20 hours, read-out: Antimicrobial activity (MIC)
Procedure, shortened: as §1

M. pneumoniae Mac = experiment: MIC, agar plate dilution method; format: cell-based; settings: Mycoplasmoides pneumoniae, 20 h, read-out: Antimicrobial activity (MIC)
Procedure, shortened: as §1

H. influenzae 9334 = experiment: MIC, agar plate dilution method; format: cell-based; settings: Haemophilus influenzae; H. influenzae 9334; 37° C., 20 hours; read-out: Antimicrobial activity (MIC)
Procedure, shortened: as §2

S. epidermidis ATCC14990 = experiment: MIC, agar plate dilution method; format: cell-based; settings: Staphylococcus epidermidis, 37° C., 20 hours, read-out: Antimicrobial activity (MIC)
Procedure, shortened: as §1

[3] = recovery in urine after oral administration to mice, bioassay; format: in vivo; settings: for dose excreted at 24 h: mouse, 200 mg/kg oral (compound (3)), urine 4 and 24 hours
Description: Subsequently, 200 mg/kg of the compound (3) was orally administered to three mice in the same manner as described above.
The three mice were put in a metabolic cage MM type (Sugiyamagen Company, Tokyo, Japan) and urine was collected 4 and 24 hours after the administration of the test compound. The collected urine was filtered through a filter having a pore size of 0.45 μm (Millipore) and was mixed with an equivalent volume of 50% CH3CN-50 mM phosphate (1:1 by volume) buffer (pH 6.5) to serve as a urine sample. The bioassay was carried out in the same manner as described above to determine the concentration of the test compound in the urine sample. The recovering in the urine was calculated according to the following equation. [formula]

esterase = settings: in vivo; cited from earlier work
[4] = Yakugaku Zasshi, 102 (8), 781 (1982); cited from earlier work
[5] = oral, man and dog; cited from earlier work
[6] = Journal of Antibiotics, 36 (4), 442 (1983); cited from earlier work

CCC(=O)O[C@@H]1CC(=O)O[C@H](C)C/C=C/C=C/[C@H](O)[C@H](C)C[C@H](CC=O)[C@H](O[C@@H]2O[C@H](C)[C@@H](O[C@H]3C[C@@](C)(OC)[C@@H](OCCC(C)C)[C@H](C)O3)[C@H](N(C)C)[C@H]2O)[C@H]1OC [(3), 4"-O-depropionyl-4"-O-isoamyl-3"-O-methylmidecamycin A1]
anti-Mycoplasma activity (Mycoplasma): practically effective anti-Mycoplasma activity | antimicrobial activities compared with MDM [1]: comparable to, or even exceeding, that of MDM | antimicrobial activities on Gram-positive bacteria and Mycoplasma [1]: strong antimicrobial activities | extent of metabolism (metabolism in plasma): hardly metabolized | pharmacokinetics in mice (in words) [2]: excellent pharmacokinetics | Cmax [2]: 11300 ng/mL | maximum concentration in the serum, comparison in words ([2]; versus clarythromycin (CAM) or other 16-membered macrolides): comparable to that of clarythromycin (CAM); also recorded: considered the highest one among 16-membered macrolide compounds having a free hydroxyl group at the 9-position | MIC (M. luteus ATCC9341): 0.05 µg/mL (≈ 0.0594 µM) | MIC (S. Pyogenes Cook): 0.1 µg/mL (≈ 0.119 µM) | MIC (M. pneumoniae FH-P24): 0.025 µg/mL (≈ 0.0297 µM) | MIC (B. catarrhalis W-0506): 1.56 µg/mL (≈ 1.85 µM) | MIC (E. faecalis W-73): 3.13 µg/mL (≈ 3.72 µM) | MIC (M. pneumoniae Numata): 0.025 µg/mL (≈ 0.0297 µM) | MIC (K. pneumoniae PC1602): > 100 µg/mL | MIC (S. aureus M133): 0.78 µg/mL (≈ 0.926 µM) | MIC (S. Pneumoniae Type 1): 0.2 µg/mL (≈ 0.238 µM) | MIC (S. aureus MS15009/pMS98): 0.78 µg/mL (≈ 0.926 µM) | MIC (S. aureus MS15027): 0.78 µg/mL (≈ 0.926 µM) | MIC (S. aureus M126): > 100 µg/mL | MIC (S. aureus 209P JC-1): 0.2 µg/mL (≈ 0.238 µM) | MIC (E. coli NIHJ JC-2): > 100 µg/mL | MIC (S. aureus MS15026): > 100 µg/mL | MIC (S. aureus MS15009/pMS99): > 100 µg/mL | MIC (S. pneumoniae IP692): 0.1 µg/mL (≈ 0.119 µM) | MIC (M. pneumoniae FH): 1.56 µg/mL (≈ 1.85 µM) | MIC (B. catarrhalis W-0500): 0.78 µg/mL (≈ 0.926 µM) | MIC (M. pneumoniae Mac): 0.05 µg/mL (≈ 0.0594 µM) | MIC (H. influenzae 9334): 6.25 µg/mL (≈ 7.42 µM) | MIC (S. epidermidis ATCC14990): 1.56 µg/mL (≈ 1.85 µM) | stability in the living mouse body (sustaining the antimicrobial activity) [3]: highly stable | recovery in the urine compared with CAM ([3]; 200 mg/kg oral): slightly lower than that of CAM | dose excreted at 24 h [3]: 20% | degree of loss of the antimicrobial activity in the plasma compared with MOM (M. luteus): lower than that of MOM

CCC(=O)O[C@@H]1CC(=O)O[C@H](C)C/C=C/C=C/[C@H](OC(C)=O)[C@H](C)C[C@H](CC=O)[C@H](O[C@@H]2O[C@H](C)[C@@H](O[C@H]3C[C@@](C)(OC(C)=O)[C@@H](OC(=O)CC)[C@H](C)O3)[C@H](N(C)C)[C@H]2O)[C@H]1OC [MOM, miokamycin, reference compound]
metabolism of the two acyl groups in the neutral sugar moiety (esterase): removed with esterase in vivo | metabolic pattern of the mycarose moiety in human compared with rat [4]: almost the same as that in rat | Cmax [2]: 6200 ng/mL | dose excreted at 24 h [3]: < 2%

CCCC(=O)O[C@H]1[C@H](C)O[C@@H](O[C@H]2[C@H](N(C)C)[C@@H](O)[C@H](O[C@H]3[C@@H](CC=O)C[C@@H](C)[C@@H](O)/C=C/C=C/C[C@@H](C)OC(=O)C[C@@H](O)[C@@H]3OC)O[C@@H]2C)C[C@@]1(C)OC(=O)CC [RKM, rokitamycin, reference compound]
metabolism of the two acyl groups in the neutral sugar moiety (esterase): removed with esterase in vivo | Cmax [2]: 2900 ng/mL | dose excreted at 24 h [3]: < 2% | major metabolite with a cleaved lactone ring [5]: no compound with a cleaved lactone ring has been reported as a major metabolite

CO[C@@H]1[C@@H](O[C@@H]2O[C@H](C)[C@@H](O[C@H]3C[C@@](C)(O)[C@@H](O)[C@H](C)O3)[C@H](N(C)C)[C@H]2O)[C@@H](CC=O)C[C@@H](C)[C@@H](O[C@H]2CC[C@H](N(C)C)[C@@H](C)O2)/C=C/C=C/C[C@@H](C)OC(=O)C[C@H]1OC(C)=O [spiramycin II]
sustained antimicrobial activity in rat plasma compared with spiramycin I [6]: shows a sustained antimicrobial activity in rat plasma
